In patent US7064236B2, “Substituted 1-aryl-but-3-enylamine and 1-aryl-but-2-enylamine compounds” (Grunenthal GmbH, priority 2001, dated 2006):
Structures can show the parent of a compound that is named as a salt.

system: phenylquinone-induced writhing in mice; assay: Analgesic testing by phenylquinone-induced writhing test in mice; type: in vivo, mouse (male NMRI mice); conditions: 10 min; 10 mg/kg intravenous, mouse, phenylquinone i.p. 10 minutes after compound; read-out: % Inhibition of writhing reaction
Procedure: Analgesic Testing by Writhing Test in Mice
The investigation into analgesic efficacy was performed by phenylquinone-induced writhing in mice (modified after: I. C. Hendershot and J. Forsaith (1959) J. Pharmacol. Exp. There. 125, 237–240). Male NMRI mice weighing from 25–30 g were used for this purpose. 10 minutes after intravenous administration of the test compounds, groups of 10 animals per dose of a compound received 0.3 ml/mouse of a 0.02% aqueous solution of phenylquinone (phenylbenzoquinone, sigma, Deisenhofen; production of the solution with addition of 5% ethanol and storage in water bath at 45° C.), administered intraperitoneally. The animals were placed individually in observation cages. A push button counter was used to record the number of pain-induced stretching movements (writhing reactions=straightening of the torso with stretching of the rear extremities) for 5–20 minutes after phenylquinone administration. The control was provided by animals who received only physiological common salt solution. All the compounds were tested at the standard dosage of 10 mg/kg. The percentage inhibition (%inhibition) of the writhing reaction by a compound of the general formula I according to the invention was calculated according to the following formula: […]
The in-depth investigation of the compounds of the general formula I according to the invention for analgesic efficacy was performed by phenylquinone-induced writhing in mice, as described above.

How did the inhibition in vivo at 10 mg/kg turn out when `CN(C)C(C1=C(Cc2ccccc2F)CCCC1)c1ccccc1` (stereo not drawn) [Example 19, {[2-(2-Fluoro-benzyl)-cyclohex-1-enyl)-phenyl-methyl}-dimethyl-amine hydrochloride] was run?
Its inhibition in vivo at 10 mg/kg is 87%.

Which inhibition in vivo at 10 mg/kg does the source give for `CN(C)C(C1=C(c2ccc(Cl)cc2)CCCC1)c1ccccc1` (stereo not drawn) [Example 28, {[2-(4-Chloro-phenyl)-cyclohex-1-enyl]-phenyl-methyl}-dimethyl-amine hydrochloride] here?
The inhibition in vivo at 10 mg/kg was 71%.

With `CN(C)C(c1ccccc1)C1CCCC=C1c1cccc(O)c1` (stereo not drawn) [Example 24, 3-[6-(dimethylamino-phenyl-methyl)-cyclohex-1-enyl]-phenol hydrochloride] as the molecule, how does the inhibition in vivo at 10 mg/kg read?
The inhibition in vivo at 10 mg/kg was 76%.

Which inhibition in vivo at 10 mg/kg does the source give for `CN(C)C(C1=C(c2ccccc2)CCCC1)c1ccc(C(F)(F)F)cc1` (stereo not drawn) [Example 29, Dimethyl-[(2-phenyl-cyclohex-1-enyl)-(4-trifluoromethyl-phenyl)-methyl]-amine hydrochloride] here?
Its inhibition in vivo at 10 mg/kg is 40%.

`CN(C)C(C1=C(CCc2ccccc2)CCCC1)c1ccccc1` (stereo not drawn) [Example 23, Dimethyl-[(2-phenethyl-cyclohex-1-enyl)-phenyl-methyl]-amine hydrochloride] was tested. Which inhibition in vivo at 10 mg/kg did it give?
The inhibition in vivo at 10 mg/kg was 67%.

How did the inhibition in vivo at 10 mg/kg turn out when `COc1ccc(C2=CCCCC2C(c2ccccc2)N(C)C)cc1` (stereo not drawn) [Example 27, {[2-(4-methoxy-phenyl)-cyclohex-2-enyl]-phenyl-methyl}-dimethylamine hydrochloride] was run?
The inhibition in vivo at 10 mg/kg was 47%.

For `CN(C)C(C1=C(Cc2ccccc2Cl)CCCC1)c1ccccc1` (stereo not drawn) [Example 20, {[2-(2-Chloro-benzyl)-cyclohex-1-enyl]-phenyl-methyl}-dimethyl-amine hydrochloride], which inhibition in vivo at 10 mg/kg is on record?
The inhibition in vivo at 10 mg/kg was 63%.

For `CN(C)C(C1=C(Cc2cccc(F)c2)CCCC1)c1ccccc1` (stereo not drawn) [Example 21, {[2-(3-Fluoro-benzyl)-cyclohex-1-enyl)-phenyl-methyl}-dimethyl-amine hydrochloride], which inhibition in vivo at 10 mg/kg is on record?
Its inhibition in vivo at 10 mg/kg is 67%.

same assay, conditions: 10 min; 21.5 mg/kg intravenous, mouse, phenylquinone i.p. 10 minutes after compound; read-out: % Inhibition of writhing reaction

With `CN(C)C(C1=C(Cc2cccc(C(F)(F)F)c2)CCCC1)c1ccccc1` (stereo not drawn) [Example 22, Dimethyl-{phenyl-[2-(3-trifluoromethyl-benzyl)-cyclohex-1-enyl]-methyl}-amine hydrochloride] as the molecule, how does the inhibition in vivo at 21.5 mg/kg read?
The inhibition in vivo at 21.5 mg/kg was 46%.
